According to patent US8344028B2, “Gamma-amino-butyric acid derivatives as GABAB receptor ligands” (XenoPort, Inc., priority 2009, dated 2013):
Structures can show the parent of a compound that is named as a salt.

Legend:
[1] = target: T1, GABAB receptor (Rattus norvegicus, UniProt Q9Z0U4); test: [3H]CGP54626 rat brain GABAB receptor binding assay; conditions: [3H]CGP54626 rat brain binding assay
T1 construct: from tissue; host or cells: rat cerebral cortex membranes
Protocol: An assay using rat cerebral cortex membranes was used to determine the affinity of GABAB receptor ligands for the GABAB receptor.
An assay buffer of 50 mM Tris pH 7.4 was prepared with 100 μM of isoguvacine, to block GABAA interactions. The assay buffer with isoguvacine was used for dilution of membranes, compounds, and radiolabel.
Rat cerebral cortex membranes were diluted in assay buffer at 1 mg/mL and aliquoted into a 96-well plate at 900 μL/well. Buffer or test compound were added at 20-times final concentration in the buffer at 50 μL/well. Membranes and test compounds or buffer were incubated for 10 min. at room temperature. Radiolableled [S—(R*,R*)]-[3-[[1-(3,4-dichlorophenyl)ethyl]amino]-2-hydroxypropyl](cyclohexylmethyl) phosphinic acid (CGP54626) was then added at 50 μL/well in the buffer at 1-10 nM concentration in 50 μl. The mixture was incubated for 15 min. at room temperature. The assay mixture was filtered using Brandell filtration apparatus and GFB filters, washed twice with 3 mL of 4° C., 50 mM Tris pH 7.4, buffer without isoguvacine. The filters were then dried at room temperature and the dried filters punched out and placed in individual vials. Three (3) mL of scintillation fluid was added to each vial and the radiolabel counted on the scintillation counter. The inverse amount of radiolabel was indicative of binding of a test compound to the GABAB receptor.

[2] = target: T2, recombinant human GABABR1a2 (Homo sapiens, UniProt Q9UBS5); test: Ca2+ assay for determining GABAB receptor agonist activity; format: cell-based; conditions: cells expressing recombinant human GABABR1a2
T2 construct: expressed in transfected cells; host or cells: HEK cells
T2 sequence (Q9UBS5 15-961 limits assumed): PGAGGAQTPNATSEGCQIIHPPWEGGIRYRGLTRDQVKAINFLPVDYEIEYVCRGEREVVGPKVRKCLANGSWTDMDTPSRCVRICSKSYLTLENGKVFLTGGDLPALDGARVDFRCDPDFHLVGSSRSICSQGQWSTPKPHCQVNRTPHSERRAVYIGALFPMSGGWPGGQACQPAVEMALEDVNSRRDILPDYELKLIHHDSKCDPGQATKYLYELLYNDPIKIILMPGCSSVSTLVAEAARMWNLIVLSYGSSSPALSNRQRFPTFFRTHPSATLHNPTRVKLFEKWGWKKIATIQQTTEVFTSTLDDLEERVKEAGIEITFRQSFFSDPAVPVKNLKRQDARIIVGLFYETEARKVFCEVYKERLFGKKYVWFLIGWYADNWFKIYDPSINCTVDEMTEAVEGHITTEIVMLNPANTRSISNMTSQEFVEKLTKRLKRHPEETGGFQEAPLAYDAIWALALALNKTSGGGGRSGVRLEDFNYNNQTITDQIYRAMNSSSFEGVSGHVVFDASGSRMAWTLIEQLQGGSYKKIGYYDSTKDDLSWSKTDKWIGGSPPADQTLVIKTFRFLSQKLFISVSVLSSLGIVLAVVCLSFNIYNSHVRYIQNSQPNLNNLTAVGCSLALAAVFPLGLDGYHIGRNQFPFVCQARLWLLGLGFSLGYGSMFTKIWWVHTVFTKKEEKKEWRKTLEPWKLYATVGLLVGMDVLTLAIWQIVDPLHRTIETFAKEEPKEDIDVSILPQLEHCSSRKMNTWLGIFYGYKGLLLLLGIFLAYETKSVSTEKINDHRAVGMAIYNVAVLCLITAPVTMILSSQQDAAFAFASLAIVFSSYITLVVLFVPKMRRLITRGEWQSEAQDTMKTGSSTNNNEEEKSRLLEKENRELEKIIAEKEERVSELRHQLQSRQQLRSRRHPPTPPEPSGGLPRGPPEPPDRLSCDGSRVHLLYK
T2 sequence (O75899 42-941 partner): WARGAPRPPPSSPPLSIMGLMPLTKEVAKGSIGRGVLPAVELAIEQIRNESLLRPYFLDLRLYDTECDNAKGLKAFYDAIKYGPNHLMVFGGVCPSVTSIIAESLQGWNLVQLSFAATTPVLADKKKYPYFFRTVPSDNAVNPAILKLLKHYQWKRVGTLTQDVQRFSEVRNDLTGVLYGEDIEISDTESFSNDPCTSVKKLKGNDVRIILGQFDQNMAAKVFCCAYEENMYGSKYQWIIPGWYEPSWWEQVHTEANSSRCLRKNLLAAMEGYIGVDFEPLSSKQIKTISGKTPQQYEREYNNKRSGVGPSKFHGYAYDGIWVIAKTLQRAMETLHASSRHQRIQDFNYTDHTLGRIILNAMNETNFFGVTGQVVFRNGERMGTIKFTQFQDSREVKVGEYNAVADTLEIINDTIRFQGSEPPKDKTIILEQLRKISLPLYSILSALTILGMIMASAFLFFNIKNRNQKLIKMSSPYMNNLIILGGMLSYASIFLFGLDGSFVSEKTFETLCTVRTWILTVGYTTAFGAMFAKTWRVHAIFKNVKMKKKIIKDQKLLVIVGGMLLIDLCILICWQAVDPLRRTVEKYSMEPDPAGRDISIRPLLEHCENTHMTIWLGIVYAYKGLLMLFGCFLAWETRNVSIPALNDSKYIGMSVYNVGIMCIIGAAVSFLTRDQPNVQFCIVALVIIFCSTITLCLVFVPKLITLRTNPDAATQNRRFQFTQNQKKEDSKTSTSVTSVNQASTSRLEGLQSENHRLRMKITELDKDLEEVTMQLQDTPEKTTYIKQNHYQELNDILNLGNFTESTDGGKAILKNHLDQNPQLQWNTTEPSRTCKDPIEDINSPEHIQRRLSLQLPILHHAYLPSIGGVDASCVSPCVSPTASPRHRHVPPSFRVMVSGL
Protocol: The following procedure was used to determine the GABAB receptor agonist activity of a compound as reflected by activation of Ca^2+ signaling. HEK TREx cells expressing GABABR1a2 under tetracycline induction control, and Gqi chimeric protein (expressed constitutively), allowing GABABR coupling through the Ca^2+ signaling pathway were used in the experiments.
Cells were seeded in media containing tetracycline overnight at 100,000 cells/well, in black, clear-bottom, 96-well plates. The following morning, cells were washed twice with 100 μL HBSS buffer per well. Fluorescent Ca^2+ indicator dye was prepared using the materials and procedure described in the F362056 Fluo-4 NW Calcium Assay Kit (Invitrogen, Carlsbad, Calif.). Ten (10) mL of kit buffer and 100 μl of kit Probenecid were added to individual kit dye vials, and rolled back and forth several times to dissolve the dye. Cells were then loaded into the dye solution at 50 μL per well. The cells and dye were incubated for 30 min at 37° C., and then incubated for an additional 30 min at room temperature in the dark. Test compounds are dissolved in HBSS buffer at twice final concentration. Duplicate wells were used for each unique condition. Solution containing the test compound was added to the wells using a FLEXStation II (Molecular Devices, Sunnyvale, Calif.). Using the instrument in kinetic mode in which each well was read every 2 sec over a total collection time of 50 sec fluorescence was measured using an excitation wavelength 494 nm and a detection wavelength of 516 nm. A normalized fluorescence value for each well was calculated using the following procedure. The difference in fluorescence at 35 sec (usually representing maximal response) and at 15 sec (a time point prior to addition of test compounds) was calculated, divided by the fluorescence at 15 sec, and the result multiplied by 100. The final value represented the percent increase in fluorescence relative to the fluorescence at 15 sec. Data was analyzed using standard procedures.

[3] = target: GABAB receptor (Homo sapiens, UniProt Q9UBS5); test: GABAB receptor agonist or partial agonist activity by binding, electrophysiology, cAMP and/or Ca2+ assay methods (Examples 83-86); format: cell-based
Sequence of GABAB receptor (Homo sapiens, UniProt Q9UBS5) (Q9UBS5 20-961): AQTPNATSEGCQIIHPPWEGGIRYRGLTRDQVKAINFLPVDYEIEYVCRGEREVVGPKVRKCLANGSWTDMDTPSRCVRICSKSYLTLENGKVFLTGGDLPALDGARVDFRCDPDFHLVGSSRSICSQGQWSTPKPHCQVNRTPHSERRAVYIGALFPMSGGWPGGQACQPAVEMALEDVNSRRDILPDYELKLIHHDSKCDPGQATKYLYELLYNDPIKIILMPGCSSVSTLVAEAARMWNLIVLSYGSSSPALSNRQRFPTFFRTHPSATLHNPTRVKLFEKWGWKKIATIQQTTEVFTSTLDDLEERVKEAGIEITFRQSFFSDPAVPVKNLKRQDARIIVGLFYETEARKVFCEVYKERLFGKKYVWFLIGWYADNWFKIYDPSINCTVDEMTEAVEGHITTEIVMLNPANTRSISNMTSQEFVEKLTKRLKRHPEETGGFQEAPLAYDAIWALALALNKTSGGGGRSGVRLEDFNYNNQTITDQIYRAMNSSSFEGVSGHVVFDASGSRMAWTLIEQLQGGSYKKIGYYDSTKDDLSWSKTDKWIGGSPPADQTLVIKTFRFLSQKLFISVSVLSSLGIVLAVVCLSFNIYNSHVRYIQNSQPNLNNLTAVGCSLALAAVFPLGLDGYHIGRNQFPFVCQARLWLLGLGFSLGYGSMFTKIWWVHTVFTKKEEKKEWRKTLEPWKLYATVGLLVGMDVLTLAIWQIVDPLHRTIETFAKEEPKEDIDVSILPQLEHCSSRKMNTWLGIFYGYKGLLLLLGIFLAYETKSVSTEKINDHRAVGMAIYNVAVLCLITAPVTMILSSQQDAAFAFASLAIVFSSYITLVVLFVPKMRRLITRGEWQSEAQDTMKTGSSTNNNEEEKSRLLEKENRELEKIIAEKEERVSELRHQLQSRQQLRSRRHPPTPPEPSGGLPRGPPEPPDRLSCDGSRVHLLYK
Sequence of GABAB receptor (Homo sapiens, UniProt Q9UBS5) (O75899 42-941 partner): as the sequence (O75899 42-941 partner) above
Procedure, shortened: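 Binding: rat cortex membranes in 50 mM Tris pH 7.4 with 100 μM isoguvacine were preincubated 10 min at RT with compound, then radiolabeled CGP54626 (1-10 nM) was added; filtered and scintillation-counted. cAMP: GABAB R1a2 HEK cells, 1 h RT with 100 μM forskolin, chemiluminescence.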

[4] = target: T2, recombinant human GABABR1a2; test: cAMP assay for determining GABAB receptor agonist activity; format: cell-based; conditions: cells expressing recombinant human GABABR1a2; read-out: cAMP EC50
Protocol: The following procedure was used to determine the level of intracellular cAMP. Recombinant HEK cells expressing the GABAB R1a2 receptor were used in the experiments. cAMP levels were measured using a cAMP XS^+ HitHunter™ Chemiluminescence Assay Kit (90-0075-02, GE Healthcare Biosciences Corp.). Cells were seeded overnight at 5,000 cells per well, in black, clear bottom 96-well plates. The following morning, cells were washed twice with 100 μL PBS per well. Forskolin was weighed out and dissolved in DMSO to a final concentration 100 mM. One-hundred (100) μM forskolin solutions were prepared in PBS with and without test compound at 1-times final concentration. Thirty (30) μL of the test solutions were added to the wells and incubated for 1 h at room temperature. The cAMP concentration was determined according to the protocol described in the cAMP assay kit, maintaining the plate at room temperature and in the dark. Two hours after the final kit reagent was added, the plate bottom was covered with black tape, and the plate read using a 1450 MicroBeta Trilux microplate scintillation and luminescence counter (PerkinElmer, Waltham, Mass.). Each well was read for 6 seconds. The untransformed data was then analyzed.

T1 sequence (Q9Z0U4 20-960): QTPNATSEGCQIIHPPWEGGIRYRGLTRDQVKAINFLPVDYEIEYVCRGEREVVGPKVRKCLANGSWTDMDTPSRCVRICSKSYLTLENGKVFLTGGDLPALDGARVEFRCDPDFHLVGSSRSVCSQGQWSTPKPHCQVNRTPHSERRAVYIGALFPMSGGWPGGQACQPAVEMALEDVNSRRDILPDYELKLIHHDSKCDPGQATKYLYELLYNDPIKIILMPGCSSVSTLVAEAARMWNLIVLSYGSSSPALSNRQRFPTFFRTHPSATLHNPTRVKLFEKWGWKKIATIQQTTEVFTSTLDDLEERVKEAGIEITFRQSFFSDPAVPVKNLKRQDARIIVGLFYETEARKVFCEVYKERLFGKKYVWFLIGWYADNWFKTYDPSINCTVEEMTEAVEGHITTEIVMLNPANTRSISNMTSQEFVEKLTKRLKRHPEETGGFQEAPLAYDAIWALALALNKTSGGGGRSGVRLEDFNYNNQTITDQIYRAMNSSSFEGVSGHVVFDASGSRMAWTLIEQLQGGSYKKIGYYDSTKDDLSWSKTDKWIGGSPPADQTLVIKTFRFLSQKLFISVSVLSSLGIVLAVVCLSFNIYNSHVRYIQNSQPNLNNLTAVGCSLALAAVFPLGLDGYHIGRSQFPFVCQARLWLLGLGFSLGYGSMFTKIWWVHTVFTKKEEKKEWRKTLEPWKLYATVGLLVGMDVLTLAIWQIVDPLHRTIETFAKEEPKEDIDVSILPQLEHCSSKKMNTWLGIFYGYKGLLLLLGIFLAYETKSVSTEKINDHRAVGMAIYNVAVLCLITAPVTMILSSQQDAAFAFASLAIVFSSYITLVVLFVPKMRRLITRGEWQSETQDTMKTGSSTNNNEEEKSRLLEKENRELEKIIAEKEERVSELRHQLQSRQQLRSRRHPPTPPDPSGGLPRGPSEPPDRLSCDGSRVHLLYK
T1 sequence (O88871 41-940 partner): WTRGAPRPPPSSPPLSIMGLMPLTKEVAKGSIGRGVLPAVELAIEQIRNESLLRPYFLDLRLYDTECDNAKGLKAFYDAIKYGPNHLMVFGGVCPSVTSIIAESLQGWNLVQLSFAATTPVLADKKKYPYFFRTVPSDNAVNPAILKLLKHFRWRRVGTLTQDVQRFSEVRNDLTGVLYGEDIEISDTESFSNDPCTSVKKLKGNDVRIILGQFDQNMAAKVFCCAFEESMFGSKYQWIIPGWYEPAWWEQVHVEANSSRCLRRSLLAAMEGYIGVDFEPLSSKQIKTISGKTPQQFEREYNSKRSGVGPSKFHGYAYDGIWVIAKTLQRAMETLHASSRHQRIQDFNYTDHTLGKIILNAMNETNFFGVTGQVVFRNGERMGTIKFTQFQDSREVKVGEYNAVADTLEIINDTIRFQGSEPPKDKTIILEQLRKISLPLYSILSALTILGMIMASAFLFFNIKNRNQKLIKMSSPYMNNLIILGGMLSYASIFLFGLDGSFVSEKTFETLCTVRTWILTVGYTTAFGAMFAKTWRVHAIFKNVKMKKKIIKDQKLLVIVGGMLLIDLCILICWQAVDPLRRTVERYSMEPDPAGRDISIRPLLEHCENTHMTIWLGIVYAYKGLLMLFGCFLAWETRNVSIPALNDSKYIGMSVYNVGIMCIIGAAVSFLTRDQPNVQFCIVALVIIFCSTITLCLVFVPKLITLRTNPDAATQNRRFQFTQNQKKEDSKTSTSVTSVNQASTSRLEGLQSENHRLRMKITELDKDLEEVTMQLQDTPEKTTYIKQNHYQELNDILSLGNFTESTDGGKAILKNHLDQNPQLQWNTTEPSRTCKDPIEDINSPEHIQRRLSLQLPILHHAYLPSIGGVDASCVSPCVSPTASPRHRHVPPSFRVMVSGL

Structure (SMILES)	IC50 [1]	EC50 [2]	GABAB receptor agonist or partial agonist activity [3]	EC50 [4]
Cl.NC[C@H](CC(=O)O)c1ccc(Cl)c(-c2ccc(F)c(C(=O)O)c2)c1 [5-{5-[(1R)-2-amino-1-(carboxymethyl)ethyl]-2-chlorophenyl}-2-fluorobenzoic acid hydrochloride]	< 25000 nM	< 700 nM	agonist or partial agonist activity	< 100 nM
Cl.NC[C@H](CC(=O)O)c1ccc(Cl)c(-c2cc(C(=O)O)ccc2Cl)c1 [Example 46, 3-{5-[(1R)-2-Amino-1-(carboxymethyl)ethyl]-2-chlorophenyl}-4-chlorobenzoic acid hydrochloride]	< 25000 nM	< 700 nM	agonist or partial agonist activity	< 100 nM
Cl.NC[C@H](CC(=O)O)c1ccc(Cl)c(-c2cccc(C(=O)O)c2)c1 [Example 25, 3-{5-[(1R)-2-Amino-1-(carboxymethyl)ethyl]-2-chlorophenyl}benzoic acid hydrochloride]	< 25000 nM	< 700 nM	agonist or partial agonist activity	< 100 nM
Cc1ccc(C#N)cc1-c1cc([C@H](CN)CC(=O)O)ccc1Cl.Cl [(3R)-4-amino-3-[4-chloro-3-(3-cyano-6-methylphenyl)phenyl]butanoic acid hydrochloride]	< 25000 nM	< 700 nM	agonist or partial agonist activity	< 100 nM
Cl.NC[C@H](CC(=O)O)c1ccc(Cl)c(NCc2ccncc2)c1 [Example 57, (3R)-4-Amino-3-{4-chloro-3-[(4-pyridylmethyl)amino]phenyl}butanoic acid hydrochloride]	< 25000 nM	< 700 nM	agonist or partial agonist activity	< 100 nM
Cl.NC[C@H](CC(=O)O)c1ccc(Cl)c(-c2ccc(C(=O)O)s2)c1 [Example 67, 5-{5-[(1R)-2-Amino-1-(carboxymethyl)ethyl]-2-chlorophenyl}thiophene-2-carboxylic acid hydrochloride]	< 25000 nM	< 700 nM	agonist or partial agonist activity	< 100 nM
N#Cc1ccc(-c2cc([C@H](CN)CC(=O)O)ccc2Cl)s1 [Example 29, (3R)-4-Amino-3-[4-chloro-3-(5-cyano-2-thienyl))phenyl]butanoic acid hydrochloride]	< 25000 nM	< 700 nM	agonist or partial agonist activity	< 100 nM
Cl.NC[C@H](CC(=O)O)c1ccc(Cl)c(-c2csc(C(=O)O)c2)c1 [Example 27, 4-{5-[(1R)-2-Amino-1-(carboxymethyl)ethyl]-2-chlorophenyl}thiophene-2-carboxylic acid hydrochloride]	< 25000 nM	< 700 nM	agonist or partial agonist activity	< 100 nM
Cl.NC[C@H](CC(=O)O)c1ccc(Cl)c(-c2cccnc2)c1 [Example 32, (3R)-4-Amino-3-(4-chloro-3-(3-pyridyl)phenyl)butanoic acid hydrochloride]	< 25000 nM	< 700 nM	agonist or partial agonist activity	< 100 nM
Cl.NC[C@H](CC(=O)O)c1ccc(Cl)c(CCc2ccncc2)c1 [(3R)-4-amino-3-[4-chloro-3-(2-(4-pyridyl)ethyl)phenyl]butanoic acid hydrochloride]	< 25000 nM	< 700 nM	agonist or partial agonist activity	< 100 nM
Cc1ccncc1-c1cc([C@H](CN)CC(=O)O)ccc1Cl.Cl [(3R)-4-amino-3-[4-chloro-3-(4-methyl(3-pyridyl))phenyl]butanoic acid hydrochloride]	< 25000 nM	< 700 nM	agonist or partial agonist activity	< 100 nM
Cl.N#Cc1cccc(-c2cc([C@H](CN)CC(=O)O)ccc2Cl)c1 [Example 33, (3R)-4-Amino-3-[4-chloro-3-(3-cyanophenyl)phenyl]butanoic acid hydrochloride]	< 25000 nM	< 700 nM	agonist or partial agonist activity	< 100 nM
Cl.NC[C@H](CC(=O)O)c1ccc(Cl)c(-c2cccc(C(N)=O)c2)c1 [Example 52, (3R)-4-Amino-3-[3-(3-carbamoylphenyl)-4-chlorophenyl]butanoic acid hydrochloride]	< 25000 nM	< 700 nM	agonist or partial agonist activity	< 100 nM
Cl.NC[C@H](CC(=O)O)c1ccc(Cl)c(-c2cc(F)cc(C(=O)O)c2)c1 [Example 50, 3-{5-[(1R)-2-Amino-1-(carboxymethyl)ethyl]-2-chlorophenyl}-5-fluorobenzoic acid hydrochloride]	< 25000 nM	< 700 nM	agonist or partial agonist activity	< 100 nM
Cl.N#Cc1ccc(F)c(-c2cc([C@H](CN)CC(=O)O)ccc2Cl)c1 [(3R)-4-amino-3-[4-chloro-3-(3-cyano-6-fluorophenyl)phenyl]butanoic acid hydrochloride]	< 25000 nM	< 700 nM	agonist or partial agonist activity	< 100 nM
Cl.NC[C@H](CC(=O)O)c1ccc(Cl)c(NCc2cnc[nH]2)c1 [Example 60, (3R)-4-Amino-3-{4-chloro-3-[(imidazol-5-ylmethyl)amino]phenyl}butanoic acid hydrochloride]	< 25000 nM	< 700 nM	agonist or partial agonist activity	< 100 nM
Cl.N#Cc1cc(F)cc(-c2cc([C@H](CN)CC(=O)O)ccc2Cl)c1 [(3R)-4-amino-3-[4-chloro-3-(3-cyano-5-fluorophenyl)phenyl]butanoic acid hydrochloride]	< 25000 nM	< 700 nM	agonist or partial agonist activity	< 100 nM
CN(C)C(=O)c1ccc(-c2cc([C@H](CN)CC(=O)O)ccc2Cl)s1 [(3R)-4-amino-3-{3-[5-(N,N-dimethylcarbamoyl)(2-thienyl)]-4-chlorophenyl}butanoic acid hydrochloride]	< 25000 nM	< 700 nM		< 100 nM
